Results from patent US20260217701A1, “SELECTIVE BET INHIBITORS AND USES THEREOF” (Tay Therapeutics Limited, priority 2022, published 2026).
“And” between values parts separate entries of the source, which are not always exact repeats. Equal values may be shown once.

Test system: collagen-induced arthritis
Assay: Collagen-induced arthritis (CIA) model: clinical scores and paw volume; as to Average animal paw volume percent change (%): reference of the scale not given here; as to animal paw volume percent change (%): reference of the scale not given here
Format: in vivo, Lewis rats
Settings: for Average animal paw volume percent change (%) / Animal paw volume percent change (%) / Average animal paw volume: group 4 CIA + GSK620 (10 mg/kg); for Animal paw volume percent change (%) / clinical score left forelimb / clinical score left hind limb / clinical score right forelimb / clinical score right hind limb / clinical score, score (all limbs) / Animal paw volume: individual animals; for Animal paw volume: Group 4 (CIA + GSK620)
[1] = group 4 CIA + GSK620, 2nd section of table, 1st day (between Day 12 and Day 18)
[2] = group 4 CIA + GSK620, 2nd section of table, 2nd day (between Day 12 and Day 18)
[3] = group 4 CIA + GSK620, 2nd section of table, 3rd day (between Day 12 and Day 18)

CNC(=O)c1cc(C(=O)NC2CC2)cn(Cc2ccccc2)c1=O [GSK620]
Percent Inhibition in clinical score (Mean ± SD) (CIA rats, 10 mg/kg): 37 ± 14% | Percent Inhibition in paw volume (Mean ± SD) (CIA rats, 10 mg/kg): 28 ± 21% | Average animal paw volume percent change (%) (Day 0, L paw): 0.00% | Animal paw volume percent change (%) (Day 0, L paw): 0.00% | Average animal paw volume percent change (%) (Day 0, R paw): 0.00% | Animal paw volume percent change (%) (Day 0, R paw): 0.00% | Average overall clinical score (Day 0, CIA): 0 | clinical score left forelimb (Day 0, CIA): 0 | clinical score left hind limb (Day 0, CIA): 0 | clinical score right forelimb (Day 0, CIA): 0 | clinical score right hind limb (Day 0, CIA): 0 | clinical score, score (all limbs) (Day 0, CIA): 0 | Average animal paw volume (Day 6, L paw): 1.34 mL | Animal paw volume percent change (%) (Day 6, L paw, 10 mg/kg): −0.39% and −0.73% and 0.36% and 0.00% (2×) and −0.37% | Average animal paw volume (Day 6, R paw): 1.34 mL | Average animal paw volume percent change (%) (Day 6, R paw): 1.50% | Animal paw volume percent change (%) (Day 6, R paw, 10 mg/kg): −0.39% and 0.00% (4×) | Average overall clinical score (Day 6, CIA): 0 | clinical score left forelimb (Day 6, CIA): 0 | clinical score left hind limb (Day 6, CIA): 0 | clinical score right forelimb (Day 6, CIA): 0 | clinical score right hind limb (Day 6, CIA): 0 | clinical score, score (all limbs) (Day 6, CIA): 0 | Average animal paw volume (Day 12, L paw): 1.36 mL | Animal paw volume percent change (%) (Day 12, L paw, 10 mg/kg): 0.76% and 0.00% and 1.50% | Average animal paw volume (Day 12, R paw): 1.37 mL | Average overall clinical score (Day 12, CIA): 0 | clinical score left forelimb (Day 12, CIA): 0 | clinical score left hind limb (Day 12, CIA): 0 | clinical score right forelimb (Day 12, CIA): 0 | clinical score right hind limb (Day 12, CIA): 0 | clinical score, score (all limbs) (Day 12, CIA): 0 | Average animal paw volume (Day 13, L paw): 1.38 mL | Animal paw volume percent change (%) (Day 13, L paw, 10 mg/kg): −0.73% | Average animal paw volume (Day 13, R paw): 1.41 mL | Average detailed clinical score, right hind limb (Day 13, CIA): 0.125 | Average detailed clinical score, score (Day 13, CIA): 0.125 | Average overall clinical score (Day 13, CIA): 0 | clinical score left forelimb (Day 13, CIA): 0 | clinical score left hind limb (Day 13, CIA): 0 | clinical score right forelimb (Day 13, CIA): 0 | clinical score right hind limb (Day 13, CIA): 0 (6×) and 1 | clinical score, score (all limbs) (Day 13, CIA): 0 (6×) and 1 | Animal paw volume (Day 13, L paw): 1.40 mL | Animal paw volume (Day 13, R paw): 1.40 mL | Animal paw volume percent change (%) (Day 14, L paw, 10 mg/kg): −0.37% | Animal paw volume percent change (%) (Day 14, R paw, 10 mg/kg): 4.40% | Average detailed clinical score, left hind limb (Day 14, CIA): 0.875 | Average detailed clinical score, right hind limb (Day 14, CIA): 1.125 | Average overall clinical score (Day 14, CIA): 2 | clinical score left forelimb (Day 14, CIA): 0 | clinical score left hind limb (Day 14, CIA): 0 (4×) and 2 (2×) and 1 | clinical score right forelimb (Day 14, CIA): 0 | clinical score right hind limb (Day 14, CIA): 0 (4×) and 2 (2×) and 3 | clinical score, score (all limbs) (Day 14, CIA): 0 (3×) and 4 and 3 (2×) and 2 | Animal paw volume (Day 14, L paw): 1.40 mL | Average animal paw volume (Day 15, L paw): 1.74 mL | Animal paw volume percent change (%) (Day 15, R paw, 10 mg/kg): 59.00% | Average detailed clinical score, left hind limb (Day 15, CIA): 1.625 | Average detailed clinical score, score (Day 15, CIA): 3.625 | Average overall clinical score (Day 15, CIA): 4 | clinical score left forelimb (Day 15, CIA): 0 | clinical score left hind limb (Day 15, CIA): 1 (2×) and 3 (3×) and 0 (2×) | clinical score right forelimb (Day 15, CIA): 0 | clinical score right hind limb (Day 15, CIA): 1 and 3 (3×) and 0 (2×) and 4 | clinical score, score (all limbs) (Day 15, CIA): 2 and 6 (3×) and 0 and 4 and 1 | Animal paw volume (Day 15, L paw): 1.60 mL | Average overall clinical score (Day 18, CIA): 7 | Average animal paw volume (Day 19, L paw): 2.54 mL | Animal paw volume percent change (%) (Day 19, L paw, 10 mg/kg): 83.00% and 100.00% | Average overall clinical score (Day 19, CIA): 8 | Animal paw volume (Day 19, R paw): 2.20 mL | Average overall clinical score (Day 21, CIA): 8 | clinical score left forelimb [1]: 0 | clinical score left hind limb [1]: 0 | clinical score right forelimb [1]: 0 | clinical score right hind limb [1]: 0 | clinical score, score (all limbs) [1]: 0 | clinical score left forelimb [2]: 0 | clinical score left hind limb [2]: 2 | clinical score right forelimb [2]: 0 | clinical score right hind limb [2]: 2 | clinical score, score (all limbs) [2]: 4 | clinical score left forelimb [3]: 0 | clinical score left hind limb [3]: 2 | clinical score right forelimb [3]: 0 | clinical score right hind limb [3]: 2 | clinical score, score (all limbs) [3]: 4 | clinical score left forelimb (group 4 CIA + GSK620, Day 18): 0 | clinical score left hind limb (group 4 CIA + GSK620, Day 18): 4 (7×) and 3 | clinical score right forelimb (group 4 CIA + GSK620, Day 18): 0 | clinical score right hind limb (group 4 CIA + GSK620, Day 18): 4 (6×) and 0 and 3 | clinical score, score (all limbs) (group 4 CIA + GSK620, Day 18): 8 (6×) and 4 and 6 | clinical score left forelimb (group 4 CIA + GSK620, Day 19): 1 (6×) and 0 (2×) | clinical score left hind limb (group 4 CIA + GSK620, Day 19): 4 (5×) and 3 (3×) | clinical score right forelimb (group 4 CIA + GSK620, Day 19): 0 (6×) and 1 (2×) | clinical score right hind limb (group 4 CIA + GSK620, Day 19): 4 (3×) and 3 (4×) and 0 | clinical score, score (all limbs) (group 4 CIA + GSK620, Day 19): 9 (2×) and 10 and 6 and 5 and 7 (2×) and 8 | clinical score left forelimb (group 4 CIA + GSK620, Day 20): 1 (5×) and 2 and 0 (2×) | clinical score left hind limb (group 4 CIA + GSK620, Day 20): 4 (5×) and 3 (3×) | clinical score right forelimb (group 4 CIA + GSK620, Day 20): 0 (6×) and 1 (2×) | clinical score right hind limb (group 4 CIA + GSK620, Day 20): 4 (3×) and 3 (4×) and 1 | clinical score, score (all limbs) (group 4 CIA + GSK620, Day 20): 9 (2×) and 11 and 6 (2×) and 7 (2×) and 8
